Source: PubChem BioAssay AID248 (DTP/NCI, 2004)
Several values for one entry are separate records, joined by “and”; a condition that tells them apart may be missing. Equal values may be shown once. Toxic doses and inconclusive results are not listed.

Tested on: L1210 leukemia ip in BDF1 mice, survival T/C
Test: NCI In Vivo Anticancer Drug Screen. Data for tumor model L1210 Leukemia (intraperitoneal) in B6D2F1 (BDF1) mice
Conditions: endpoint: mean survival time, higher = longer survival
Summary of the method: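 Survival endpoint. Drug-treated group vs vehicle group, expressed as T divided by C. Tumor passaged by transplantation.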

[1] = dose: 100.0 mg/kg/injection, schedule: Q01DX009 (ip), vehicle: saline
[2] = dose: 200.0 mg/kg/injection, schedule: Q01DX009 (ip), vehicle: saline
[3] = dose: 100.0 mg/kg/injection, schedule: Q04DX003 (ip), vehicle: saline
[4] = dose: 200.0 mg/kg/injection, schedule: Q04DX003 (ip), vehicle: saline
[5] = dose: 400.0 mg/kg/injection, schedule: Q01DX009 (ip), vehicle: saline
[6] = dose: 100.0 mg/kg/injection, schedule: Q04DX003 (ip), vehicle: saline with Tween-80
[7] = dose: 200.0 mg/kg/injection, schedule: Q04DX003 (ip), vehicle: saline with Tween-80
[8] = dose: 100.0 mg/kg/injection, schedule: Q01DX001 (ip), vehicle: saline
[9] = dose: 200.0 mg/kg/injection, schedule: Q01DX001 (ip), vehicle: saline
[10] = dose: 400.0 mg/kg/injection, schedule: Q01DX001 (ip), vehicle: saline
[11] = dose: 100.0 mg/kg/injection, schedule: Q01DX009 (ip), vehicle: Klucel (hydroxypropylcellulose) (HPC)
[12] = dose: 200.0 mg/kg/injection, schedule: Q01DX009 (ip), vehicle: Klucel (hydroxypropylcellulose) (HPC)
[13] = dose: 400.0 mg/kg/injection, schedule: Q01DX009 (ip), vehicle: Klucel (hydroxypropylcellulose) (HPC)
[14] = dose: 400.0 mg/kg/injection, schedule: Q04DX003 (ip), vehicle: saline with Tween-80

CS(=O)(=O)c1ccccc1C(=O)O
T/C (dose: 50.0 mg/kg/injection, schedule: Q01DX009 (ip), vehicle: saline): 93 % of control
T/C (dose: 50.0 mg/kg/injection, schedule: Q04DX003 (ip), vehicle: acetone): 105 % of control
T/C (dose: 100.0 mg/kg/injection, schedule: Q01DX001 (ip), vehicle: acetone): 97 % of control
T/C [1]: 98 % of control
T/C (dose: 100.0 mg/kg/injection, schedule: Q04DX003 (ip), vehicle: acetone): 105 % of control
T/C (dose: 200.0 mg/kg/injection, schedule: Q01DX001 (ip), vehicle: acetone): 101 % of control
T/C [2]: 98 % of control
T/C (dose: 200.0 mg/kg/injection, schedule: Q04DX003 (ip), vehicle: acetone): 103 % of control

O=C1OC(=O)C2C1C1(Cl)C(Cl)=C(Cl)C2(Cl)C2C(=O)OC(=O)C21 (stereo not given)
T/C [1]: 94 % of control
T/C [3]: 95 % of control
T/C [2]: 90 % of control
T/C [4]: 95 % of control
T/C [5]: 91 % of control
T/C (dose: 400.0 mg/kg/injection, schedule: Q04DX003 (ip), vehicle: saline): 95 % of control

COc1ccc(C(=O)Nc2cccc(C(F)(F)F)c2)cc1
T/C (dose: 100.0 mg/kg/injection, schedule: Q01DX001 (ip), vehicle: saline with Tween-80): 97 % of control
T/C (dose: 100.0 mg/kg/injection, schedule: Q01DX009 (ip), vehicle: saline with Tween-80): 100 % of control
T/C (dose: 100.0 mg/kg/injection, schedule: Q04DX002 (ip), vehicle: saline with Tween-80): 100 % of control and 105 % of control
T/C (dose: 200.0 mg/kg/injection, schedule: Q01DX001 (ip), vehicle: saline with Tween-80): 100 % of control
T/C (dose: 200.0 mg/kg/injection, schedule: Q01DX009 (ip), vehicle: saline with Tween-80): 121 % of control
T/C (dose: 200.0 mg/kg/injection, schedule: Q04DX002 (ip), vehicle: saline with Tween-80): 100 % of control and 108 % of control
T/C (dose: 400.0 mg/kg/injection, schedule: Q01DX001 (ip), vehicle: saline with Tween-80): 98 % of control
T/C (dose: 400.0 mg/kg/injection, schedule: Q01DX009 (ip), vehicle: saline with Tween-80): 118 % of control
T/C (dose: 400.0 mg/kg/injection, schedule: Q04DX002 (ip), vehicle: saline with Tween-80): 107 % of control and 90 % of control

COC1CCC(NC(=O)N(CCCl)N=O)CC1 (stereo not given)
T/C (dose: 3.5 mg/kg/injection, schedule: Q01DX001 (ip), vehicle: saline with Tween-80): 106 % of control
T/C (dose: 5.0 mg/kg/injection, schedule: Q01DX001 (ip), vehicle: saline with Tween-80): 110 % of control
T/C (dose: 8.0 mg/kg/injection, schedule: Q01DX001 (ip), vehicle: saline with Tween-80): 124 % of control
T/C (dose: 16.0 mg/kg/injection, schedule: Q01DX001 (ip), vehicle: saline with Tween-80): 155 % of control and 266 % of control
T/C (dose: 18.0 mg/kg/injection, schedule: Q01DX001 (ip), vehicle: saline with Tween-80): 221 % of control
T/C (dose: 24.0 mg/kg/injection, schedule: Q01DX001 (ip), vehicle: saline with Tween-80): 592 % of control
T/C (dose: 26.0 mg/kg/injection, schedule: Q01DX001 (ip), vehicle: saline with Tween-80): 302 % of control
T/C (dose: 35.0 mg/kg/injection, schedule: Q01DX001 (ip), vehicle: saline with Tween-80): 404 % of control
T/C (dose: 40.0 mg/kg/injection, schedule: Q01DX001 (ip), vehicle: saline with Tween-80): 340 % of control
T/C (dose: 53.0 mg/kg/injection, schedule: Q01DX001 (ip), vehicle: saline with Tween-80): 193 % of control
T/C (dose: 60.0 mg/kg/injection, schedule: Q01DX001 (ip), vehicle: saline with Tween-80): 294 % of control

Clc1ccc2nncn2n1
T/C (dose: 50.0 mg/kg/injection, schedule: Q04DX003 (ip), vehicle: saline with Tween-80): 97 % of control
T/C [6]: 100 % of control
T/C [7]: 100 % of control

CCCCCCC(C)OC(=O)CCSCCC(=O)OC(C)CCCCCC (stereo not given)
T/C [8]: 98 % of control
T/C [9]: 94 % of control
T/C [10]: 86 % of control

N#CCCN(CCC#N)c1ccccc1
T/C [1]: 94 % of control
T/C [2]: 102 % of control
T/C [5]: 107 % of control

CN(C)c1ccc(/C=N/NC(=O)c2ccccc2NC(=O)c2ccccc2)cc1
T/C [11]: 89 % of control
T/C [12]: 100 % of control
T/C [13]: 89 % of control

COc1cc2c(c(OC)c1OC)CN(CC1COc3ccccc3O1)CC2 (stereo not given)
T/C [6]: 98 % of control
T/C [7]: 101 % of control
T/C [14]: 96 % of control

COC(=O)/C=C/C=C(c1ccccc1)c1ccccc1
T/C (dose: 100.0 mg/kg/injection, schedule: Q01DX001 (ip), vehicle: carboxymethylcellulose (CMC)): 93 % of control
T/C (dose: 200.0 mg/kg/injection, schedule: Q01DX001 (ip), vehicle: carboxymethylcellulose (CMC)): 102 % of control
T/C (dose: 400.0 mg/kg/injection, schedule: Q01DX001 (ip), vehicle: carboxymethylcellulose (CMC)): 102 % of control

CC1(c2ccccc2)OCC(CCl)O1 (stereo not given)
T/C (dose: 222.0 mg/kg/injection, schedule: Q01DX Z (ip), vehicle: saline): 95 % of control
T/C (dose: 333.0 mg/kg/injection, schedule: Q01DX Z (ip), vehicle: saline): 95 % of control
T/C (dose: 500.0 mg/kg/injection, schedule: Q01DX Z (ip), vehicle: saline): 91 % of control

N=C(N)SCCCN
T/C [1]: 108 % of control
T/C [3]: 101 % of control
T/C [4]: 100 % of control

CC1(C)OC(C)(C)C1(O)C(=O)O
T/C [8]: 97 % of control
T/C [9]: 101 % of control
T/C [10]: 105 % of control

O=[N+]([O-])c1ccc(C=Nc2ccc(Cc3ccncc3)cc2)cc1
T/C (dose: 100.0 mg/kg/injection, schedule: Q01DX009 (ip), vehicle: carboxymethylcellulose (CMC)): 93 % of control and 100 % of control
T/C (dose: 100.0 mg/kg/injection, schedule: Q04DX002 (ip), vehicle: carboxymethylcellulose (CMC)): 104 % of control
T/C (dose: 100.0 mg/kg/injection, schedule: Q04DX003 (ip), vehicle: carboxymethylcellulose (CMC)): 101 % of control
T/C (dose: 200.0 mg/kg/injection, schedule: Q01DX009 (ip), vehicle: carboxymethylcellulose (CMC)): 97 % of control and 98 % of control
T/C (dose: 200.0 mg/kg/injection, schedule: Q04DX002 (ip), vehicle: carboxymethylcellulose (CMC)): 98 % of control
T/C (dose: 200.0 mg/kg/injection, schedule: Q04DX003 (ip), vehicle: carboxymethylcellulose (CMC)): 94 % of control
T/C (dose: 400.0 mg/kg/injection, schedule: Q01DX009 (ip), vehicle: carboxymethylcellulose (CMC)): 95 % of control and 91 % of control
T/C (dose: 400.0 mg/kg/injection, schedule: Q04DX002 (ip), vehicle: carboxymethylcellulose (CMC)): 93 % of control
T/C (dose: 400.0 mg/kg/injection, schedule: Q04DX003 (ip), vehicle: carboxymethylcellulose (CMC)): 100 % of control

O=NN(CCCl)C(=O)NC1CCC(Br)CC1 (stereo not given)
T/C (dose: 10.0 mg/kg/injection, schedule: Q01DX001 (ip), vehicle: saline with Tween-80): 122 % of control
T/C (dose: 22.0 mg/kg/injection, schedule: Q01DX001 (ip), vehicle: saline with Tween-80): 150 % of control
T/C (dose: 33.5 mg/kg/injection, schedule: Q01DX001 (ip), vehicle: saline with Tween-80): 197 % of control
T/C (dose: 50.0 mg/kg/injection, schedule: Q01DX001 (ip), vehicle: saline with Tween-80): 455 % of control
T/C (dose: 75.0 mg/kg/injection, schedule: Q01DX001 (ip), vehicle: saline with Tween-80): 455 % of control
T/C (dose: 112.0 mg/kg/injection, schedule: Q01DX001 (ip), vehicle: saline with Tween-80): 420 % of control
T/C (dose: 252.0 mg/kg/injection, schedule: Q01DX001 (ip), vehicle: saline with Tween-80): 208 % of control

CN(C)C1=C(Cl)C(=O)c2ccccc2C1=O
T/C (dose: 50.0 mg/kg/injection, schedule: Q01DX001 (ip), vehicle: saline): 102 % of control
T/C [8]: 100 % of control

CCN(CC)C(=O)Cn1ccc(O)cc1=O
T/C [6]: 109 % of control
T/C [7]: 98 % of control
T/C [14]: 104 % of control

O=C1/C(=C\c2cccc3ccccc23)CS(=O)(=O)C/C1=C/c1cccc2ccccc12
T/C [8]: 95 % of control
T/C [9]: 94 % of control
T/C [10]: 94 % of control

O=C(O)C1CCCCC1C(=O)NCc1ccco1 (stereo not given)
T/C [11]: 95 % of control
T/C [12]: 96 % of control
T/C [13]: 88 % of control

CN(C)C=Nc1cc2c3c(c1)CCCN3CCC2
T/C (dose: 12.5 mg/kg/injection, schedule: Q01DX001 (ip), vehicle: saline): 103 % of control
T/C (dose: 25.0 mg/kg/injection, schedule: Q01DX001 (ip), vehicle: saline): 105 % of control
